Source: patent US12624023B2, “Sulfonylurea derivatives and uses thereof” (NodThera Limited, priority 2019, dated 2026)

How the values were obtained:
[1] = system: IL-1β release upon NLRP3 activation in peripheral blood mononuclear cells (PBMC); assay: PBMC IC50 determination assay (IL-1β release, LPS priming + ATP stimulation, HTRF); format: cell-based; conditions: PBMC from buffy coats; LPS 1 μg/ml 3 h, compound 30 min, ATP 5 mM 1 h; IL-1β by HTRF
Experimental: The compounds of the present disclosure were tested for their inhibitory activity against IL-1β release upon NLRP3 activation in peripheral blood mononuclear cells (PBMC).
PBMC were isolated from buffy coats by density gradient centrifugation on Histopaque-1077 (Sigma, cat no. 10771). Isolated cells were seeded into the wells (280,000 cells/well) of a 96-well plate and incubated for 3 h with lipopolysaccharide (LPS, 1 μg/ml diluted 1000× from a 1 mg/ml stock solution). The compounds of the present disclosure were added (a single compound per well) and the cells were incubated for 30 min. Next, the cells were stimulated with ATP (5 mM final concentration diluted 20× from a 100 mM stock solution) for 1 h and the cell culture media from the wells were collected for further analysis.
(§1) The release of IL-1β into the media was determined by quantitative detection of IL-1β in the media using HTRF®, CisBio cat. No. 62HIL1BPEH. Briefly, cell culture supernatant were dispensed directly into the assay plate containing antibodies labelled with the HTRF® donor and acceptor. A microplate spectrophotometer (BMG) was used to detect signals at 655 nm and 620 nm. The detection range of IL-1β HTRF® was 39-6500 μg/ml.

[2] = system: IL-1β release upon NLRP3 activation in human whole blood; assay: Whole blood (WB) assay (IL-1β release, LPS priming + ATP stimulation, HTRF); format: cell-based; conditions: heparin, diluted 9:5 with media, LPS 1 μg/ml 3 h, compound 30 min, ATP 5 mM 1 h, IL-1β by HTRF
Experimental: The compounds of the present disclosure were tested for their inhibitory activity against IL-1β release upon NLRP3 activation in human whole blood.
Whole blood was drawn from single healthy donors and treated with sodium heparin anticoagulant. Blood was diluted with cell culture media at a 9:5 ratio, seeded in a 96-well plate and incubated for 3 h with lipopolysaccharide (LPS, 1 μg/ml final concentration diluted 1000× from a 1 mg/ml stock solution). The compounds of the present disclosure were added (a single compound concentration per well) and the blood was incubated for 30 min. Next, the blood was stimulated with ATP (5 mM final concentration diluted 20× from a 100 mM stock solution) for 1 h and the cell culture media from the wells were collected for further analysis.
as §1, with “were diluted as appropriate to bring IL-1β levels within the HTRF® detection range ([…]) and subsequently” for “were”, “dispensed” for “dispensed directly”, “nm.” for “nm. The detection range of IL-1β HTRF® was 39-6500 μg/ml.”

SMILES | IC50 [1] | IC50 [2]
Cc1csc(C)c1NC(=O)NS(=O)(=O)N(c1cnn(C)c1)C1CCOCC1 [Compound 1, 3-(2,4-Dimethylthiophen-3-yl)-1-[(1-methyl-1H-pyrazol-4-yl)(oxan-4-yl)-sulfamoyl]urea] | 1 to 5 µM | 3 to 10 µM
Cc1cc(NC(=O)NS(=O)(=O)N(c2cnn(C)c2)C2CCOCC2)c(C)s1 [Compound 2, 3-(2,5-Dimethylthiophen-3-yl)-1-[(1-methyl-1H-pyrazol-4-yl)(oxan-4-yl)sulfamoyl]urea] | 0.5 to 1 µM | 3 to 10 µM
Cc1sc2ccccc2c1NC(=O)NS(=O)(=O)N(c1cnn(C)c1)C1CCOCC1 [Compound 3, 3-(2-Methyl-1-benzothiophen-3-yl)-1-[(1-methyl-1H-pyrazol-4-yl)(oxan-4-yl)sulfamoyl]urea] | 1 to 5 µM | > 20 µM
CCc1cc(NC(=O)NS(=O)(=O)N(c2cnn(C)c2)C2CCOCC2)c(CC)s1 [Compound 4, 3-(2,5-Diethylthiophen-3-yl)-1-[(1-methyl-1H-pyrazol-4-yl)(oxan-4-yl)sulfamoyl]urea] | 1 to 5 µM | 10 to 20 µM
Cn1cc(N(C2CCOCC2)S(=O)(=O)NC(=O)Nc2cc(Cl)sc2Cl)cn1 [Compound 5, 3-(2,5-Dichlorothiophen-3-yl)-1-[(1-methyl-1H-pyrazol-4-yl)(oxan-4-yl)sulfamoyl]urea] | 5 to 10 µM | > 20 µM
CC(C)c1cc(NC(=O)NS(=O)(=O)N(c2cnn(C)c2)C2CCOCC2)c(C(C)C)s1 [Compound 6, 3-[2,5-Bis(propan-2-yl)thiophen-3-yl]-1-[(1-methyl-1H-pyrazol-4-yl)(oxan-4-yl)sulfamoyl]urea] | 0.5 to 1 µM | > 20 µM
CCc1csc(CC)c1NC(=O)NS(=O)(=O)N(c1cnn(C)c1)C1CCOCC1 [Compound 7, 3-(2,4-Diethylthiophen-3-yl)-1-[(1-methyl-1H-pyrazol-4-yl)(oxan-4-yl)sulfamoyl]urea] | 1 to 5 µM | 10 to 20 µM
Cc1csc(NC(=O)NS(=O)(=O)N(c2cnn(C)c2)C2CCCN(C)C2)c1C (stereo not drawn) [Compound 17, 3-(3,4-Dimethylthiophen-2-yl)-1-[(1-methyl-1H-pyrazol-4-yl)(1-methyl-piperidin-3-yl)sulfamoyl]urea] | 5 to 10 µM | 
CCc1nc(NC(=O)NS(=O)(=O)N(c2cnn(C)c2)C2CCCN(C)C2)c(CC)s1 (stereo not drawn) [Compound 31, 3-(2,5-Diethyl-1,3-thiazol-4-yl)-1-[(1-methyl-1H-pyrazol-4-yl)(1-methyl-piperidin-3-yl)sulfamoyl]urea] | 5 to 10 µM | 
CCc1cc(NC(=O)NS(=O)(=O)N(C[C@@H]2C[C@@H](F)CN2C)c2cnn(C(C)C)c2)c(CC)o1 [Compound 63, 3-(2,5-Diethylfuran-3-yl)-1-({[(2S,4R)-4-fluoro-1-methylpyrrolidin-2-yl]methyl}[1-(propan-2-yl)-1H-pyrazol-4-yl]sulfamoyl)urea] | 1 to 5 µM | 
CCc1cc(NC(=O)NS(=O)(=O)N(C2CCOCC2)C2CCCN(C)C2)c(CC)s1 (stereo not drawn) [Compound 68, 3-(2,5-Diethylthiophen-3-yl)-1-[(1-methylpiperidin-3-yl)(oxan-4-yl)sulfamoyl]-urea] | 5 to 10 µM | 
CCc1cc(NC(=O)NS(=O)(=O)N(CCN(C)C)c2cnn(C)c2)c(CC)o1 [Compound 72, 3-(2,5-Diethylfuran-3-yl)-1-{[2-(dimethylamino)ethyl](1-methyl-1H-pyrazol-4-yl)sulfamoyl}urea] | 1 to 5 µM | 
CCc1cc(NC(=O)NS(=O)(=O)N(CC2CCCO2)c2cnn(C)c2)c(CC)o1 (stereo not drawn) [Compound 74, 1-(2,5-Diethylfuran-3-yl)-3-[(1-methyl-1H-pyrazol-4-yl)[(oxolan-2-yl)methyl]-sulfamoyl]urea] | 1 to 5 µM | 
Cc1cc(NC(=O)NS(=O)(=O)N(c2cnn(C3CC3)c2)[C@H]2CCCN(C)C2)c(C2CC2)s1 [Compound 105, 1-[(1-Cyclopropyl-1H-pyrazol-4-yl)[(3S)-1-methylpiperidin-3-yl]sulfamoyl]-3-(2-cyclopropyl-5-methylthiophen-3-yl)urea] | 0.1 to 0.5 µM | 
